The target in assay [1] is T1, CSNK1A1 (CK1 alpha 1) (Homo sapiens, UniProt P48729).
T1 construct: purchased Life Technologies PV 3850
The assay can be described thus: Z'-LYTE kinase selectivity assay CSNK1A1. Type of assay: biochemical. From the text:
(§1) In order to compare the kinase selectivity of compounds (I) according to the invention with known prior art compounds the commercially provided SelectScreen® Kinase Profiling Service (Z′-LYTE®) was used (Life Technologies GmbH, Darmstadt, Germany) to investigate the ability of the compounds to inhibit a number of different, representatively selected human kinases. Further details regarding this service are available on the Life Technologies website at
(§2) The Z′-LYTE® biochemical assay employs a fluorescence-based, coupled-enzyme format and is based on the differential sensitivity of phosphorylated and non-phosphorylated peptides to proteolytic cleavage. The peptide substrate is labeled with two fluorophores—one at each end—that make up a FRET pair.
(§3) In the primary reaction, the kinase transfers the gamma-phosphate of ATP to a single tyrosine, serine or threonine residue in a synthetic FRET-peptide. In the secondary reaction, a site-specific protease recognizes and cleaves non-phosphorylated FRET-peptides. Phosphorylation of FRET-peptides suppresses cleavage by the Development Reagent. Cleavage disrupts FRET between the donor (i.e., coumarin) and acceptor (i.e., fluorescein) fluorophores on the FRET-peptide, whereas uncleaved, phosphorylated FRET-peptides maintain FRET. A ratiometric method, which calculates the ratio (the Emission Ratio) of donor emission to acceptor emission after excitation of the donor fluorophore at 400 nm, is used to quantitate reaction progress, as shown in the equation below.
(§4) The Test Compounds are screened at 1 μM.
The 2×CSNK1A1 (CK1 alpha 1) (# PV 3850)/Ser/Thr 11 (Z′-LYTE® Kinase Assay Kit—Ser/Thr 11 Peptide, # PV 3670) mixture is prepared in 50 mM HEPES pH 7.5, 0.01% BRIJ-35, 10 mM MgCl2, 1 mM EGTA, 2 mM DTT. The final 10 μL Kinase Reaction consists of 2.6-13.5 ng CSNK1A1 (CK1 alpha 1) and 2 μM Ser/Thr 11 in 50 mM HEPES pH 7.5, 0.01% BRIJ-35, 10 mM MgCl2, 1 mM EGTA, 1 mM DTT. After the 1 hour Kinase Reaction incubation, 5 μL of a 1:16 dilution of Development Reagent B is added.

Assay [2] deals with T2, ROCK2 (Homo sapiens, UniProt O75116).
T2 construct: purchased Life Technologies PV 3759
As to the kind of experiment: Z'-LYTE kinase selectivity assay ROCK2. The format is biochemical.
Source text: as §1, §2, §3, §4
The 2×ROCK2 (# PV 3759)/Ser/Thr 13 (Z′-LYTE® Kinase Assay Kit—Ser/Thr 13 Peptide, # PV 3793) mixture is prepared in 50 mM HEPES pH 7.5, 0.01% BRIJ-35, 10 mM MgCl2. 1 mM EGTA. The final 10 μL Kinase Reaction consists of 0.62-4.13 ng ROCK2 and 2 μM Ser/Thr 13 in 50 mM HEPES pH 7.5, 0.01% BRIJ-35, 10 mM MgCl2, 1 mM EGTA. After the 1 hour Kinase Reaction incubation, 5 μL of a 1:1024 dilution of Development Reagent A is added.

In assay [3] the target is T3, MAP3K8 (COT) (Homo sapiens, UniProt P41279).
T3 construct: purchased Life Technologies PV 4313
The assay can be described thus: Z'-LYTE kinase selectivity assay MAP3K8. Type of assay: biochemical.
Source text: as §1, §2, §3, §4
After the 1 hour Kinase Reaction incubation, 5 μL of a 1:1024 dilution of Development Reagent A is added.

Assay [4] concerns the target standard panel of 30 kinases. The assay can be described thus: Kinase selectivity panel (SelectScreen Z'-LYTE), number of kinases inhibited. The format is biochemical, human. Particulars: count out of 30 kinases.
Source text: Prior art document WO 2012/010704, which is completely silent about the pharmacokinetic profile of its compounds, discloses compounds with similar substituents in the 2-position, e.g. compounds I-166, I-167 and I-175, which share the previously undefined, desirable pharmacokinetic profile with compounds (I) according to the invention.
as §1, §2, §3, §4

For assay [5], the target named is T4, GSK3B (GSK3 beta) (Homo sapiens, UniProt P49841).
T4 construct: purchased Life Technologies PV 3365
As to the kind of experiment: Z'-LYTE kinase selectivity assay GSK3B. The format is biochemical.
Source text: as §1, §2, §3, §4
The 2×GSK3B (GSK3 beta) (# PV 3365)/Ser/Thr 09 (Z′-LYTE® Kinase Assay Kit—Ser/Thr 9 Peptide, # PV 3324) mixture is prepared in 50 mM HEPES pH 7.5, 0.01% BRIJ-35, 10 mM MgCl2, 1 mM EGTA. The final 10 μL Kinase Reaction consists of 0.17-0.88 ng GSK3B (GSK3 beta) and 2 μM Ser/Thr 09 in 50 mM HEPES pH 7.5, 0.01% BRIJ-35, 10 mM MgCl2, 1 mM EGTA. After the 1 hour Kinase Reaction incubation, 5 μL of a 1:512 dilution of Development Reagent A is added.

In assay [6] the target is T5, MYLK2 (skMLCK) (Homo sapiens, UniProt Q9H1R3).
T5 construct: purchased Life Technologies PV 3757
As to the kind of experiment: Z'-LYTE kinase selectivity assay MYLK2. Type of assay: biochemical.
Source text: as §1, §2, §3, §4
The 2×MYLK2 (skMLCK) (# PV 3757)/Ser/Thr 13 (Z′-LYTE® Kinase Assay Kit—Ser/Thr 13 Peptide, # PV 3793) mixture is prepared in 50 mM HEPES pH 7.5, 0.01% BRIJ-35, 10 mM MgCl2, 1 mM EGTA, 4 mM CaCl2, 800 U/mL Calmodulin, 0.02% NaN3. The final 10 μL Kinase Reaction consists of 6.71-48.9 ng MYLK2 (skMLCK) and 2 μM Ser/Thr 13 in 50 mM HEPES pH 7.5, 0.01% BRIJ-35, 10 mM MgCl2, 1 mM EGTA, 2 mM CaCl2, 400 U/mL Calmodulin, 0.01% NaN3. After the 1 hour Kinase Reaction incubation, 5 μL of a 1:1024 dilution of Development Reagent A is added.

Assay [7] addresses T6, ABL1 (Homo sapiens, UniProt P00519).
T6 construct: purchased Life Technologies P3049
The assay can be described thus: Z'-LYTE kinase selectivity assay ABL1. Type of assay: biochemical.
Source text: as §1, §2, §3, §4
The 2×ABL1 (# P3049)/Tyr 02 (Z′-LYTE® Kinase Assay Kit—Tyrosine 2 Peptide, # PV 3191) mixture is prepared in 50 mM HEPES pH 7.5, 0.01% BRIJ-35, 10 mM MgCl2, 1 mM EGTA. The final 10 μL Kinase Reaction consists of 0.29-2.52 ng ABL1 and 2 μM Tyr 02 in 50 mM HEPES pH 7.5, 0.01% BRIJ-35, 10 mM MgCl2, 1 mM EGTA. After the 1 hour Kinase Reaction incubation, 5 μL of a 1:128 dilution of Development Reagent A is to added.

T2 sequence (O75116 whole entry): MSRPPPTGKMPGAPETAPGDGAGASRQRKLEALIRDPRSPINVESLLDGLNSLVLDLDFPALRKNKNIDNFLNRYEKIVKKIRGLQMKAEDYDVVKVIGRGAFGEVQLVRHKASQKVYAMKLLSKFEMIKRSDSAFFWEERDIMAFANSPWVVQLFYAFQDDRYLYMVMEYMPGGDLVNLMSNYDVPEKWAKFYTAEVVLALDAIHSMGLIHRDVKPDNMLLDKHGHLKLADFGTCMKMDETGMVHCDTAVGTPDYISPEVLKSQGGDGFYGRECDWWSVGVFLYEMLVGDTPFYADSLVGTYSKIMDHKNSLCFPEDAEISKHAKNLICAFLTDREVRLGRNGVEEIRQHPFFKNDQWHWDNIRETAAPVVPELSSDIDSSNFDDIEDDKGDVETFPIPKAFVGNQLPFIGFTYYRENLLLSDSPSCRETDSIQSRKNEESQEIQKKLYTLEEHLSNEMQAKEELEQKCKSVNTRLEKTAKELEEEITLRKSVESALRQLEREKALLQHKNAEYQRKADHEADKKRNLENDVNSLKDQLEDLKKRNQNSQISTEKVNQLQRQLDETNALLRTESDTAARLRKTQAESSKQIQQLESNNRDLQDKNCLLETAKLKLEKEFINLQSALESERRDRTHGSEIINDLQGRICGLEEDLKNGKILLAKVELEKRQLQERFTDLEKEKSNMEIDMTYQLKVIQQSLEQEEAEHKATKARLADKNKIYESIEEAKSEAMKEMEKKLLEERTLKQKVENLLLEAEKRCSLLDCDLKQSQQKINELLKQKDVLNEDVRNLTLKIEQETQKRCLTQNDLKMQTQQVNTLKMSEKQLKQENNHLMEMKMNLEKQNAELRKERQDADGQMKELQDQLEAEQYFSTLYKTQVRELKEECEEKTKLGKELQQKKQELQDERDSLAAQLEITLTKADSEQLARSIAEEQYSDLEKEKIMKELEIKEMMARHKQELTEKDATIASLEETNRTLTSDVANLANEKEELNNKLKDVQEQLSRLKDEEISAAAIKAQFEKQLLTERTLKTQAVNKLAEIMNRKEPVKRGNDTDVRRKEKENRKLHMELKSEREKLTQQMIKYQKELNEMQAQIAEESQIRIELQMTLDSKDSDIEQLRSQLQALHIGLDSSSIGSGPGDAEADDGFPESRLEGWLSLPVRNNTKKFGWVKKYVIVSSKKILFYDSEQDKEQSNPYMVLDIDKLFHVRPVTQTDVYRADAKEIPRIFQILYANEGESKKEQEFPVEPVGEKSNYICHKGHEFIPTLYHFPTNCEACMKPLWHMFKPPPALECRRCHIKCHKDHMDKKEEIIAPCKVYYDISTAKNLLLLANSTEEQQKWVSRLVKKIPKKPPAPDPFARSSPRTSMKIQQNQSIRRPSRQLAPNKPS
T4 sequence (P49841 whole entry): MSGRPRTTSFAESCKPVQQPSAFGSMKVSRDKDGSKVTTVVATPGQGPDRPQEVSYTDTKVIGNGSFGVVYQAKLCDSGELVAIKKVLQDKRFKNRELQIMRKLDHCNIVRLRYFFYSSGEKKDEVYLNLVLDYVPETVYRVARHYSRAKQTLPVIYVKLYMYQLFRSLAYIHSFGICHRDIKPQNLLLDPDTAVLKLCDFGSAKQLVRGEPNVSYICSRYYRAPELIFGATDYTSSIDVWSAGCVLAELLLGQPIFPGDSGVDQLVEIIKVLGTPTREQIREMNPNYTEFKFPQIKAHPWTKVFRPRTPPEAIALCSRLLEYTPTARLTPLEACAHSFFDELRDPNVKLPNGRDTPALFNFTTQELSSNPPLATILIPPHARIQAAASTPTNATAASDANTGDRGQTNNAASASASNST
T3 sequence (P41279 whole entry): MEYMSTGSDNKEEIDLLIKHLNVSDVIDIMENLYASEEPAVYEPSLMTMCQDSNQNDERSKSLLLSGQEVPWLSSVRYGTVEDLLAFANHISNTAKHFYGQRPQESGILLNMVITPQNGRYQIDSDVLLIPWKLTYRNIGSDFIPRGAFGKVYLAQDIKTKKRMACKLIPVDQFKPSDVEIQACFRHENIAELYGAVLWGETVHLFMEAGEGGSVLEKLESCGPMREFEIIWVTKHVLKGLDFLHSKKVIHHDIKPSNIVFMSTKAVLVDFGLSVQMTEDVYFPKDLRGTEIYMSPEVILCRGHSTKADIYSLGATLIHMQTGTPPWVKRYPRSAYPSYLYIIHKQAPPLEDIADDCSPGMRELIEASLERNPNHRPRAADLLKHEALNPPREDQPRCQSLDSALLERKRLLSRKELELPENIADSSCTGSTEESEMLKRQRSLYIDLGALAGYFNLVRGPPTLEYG
T6 sequence (P00519 whole entry): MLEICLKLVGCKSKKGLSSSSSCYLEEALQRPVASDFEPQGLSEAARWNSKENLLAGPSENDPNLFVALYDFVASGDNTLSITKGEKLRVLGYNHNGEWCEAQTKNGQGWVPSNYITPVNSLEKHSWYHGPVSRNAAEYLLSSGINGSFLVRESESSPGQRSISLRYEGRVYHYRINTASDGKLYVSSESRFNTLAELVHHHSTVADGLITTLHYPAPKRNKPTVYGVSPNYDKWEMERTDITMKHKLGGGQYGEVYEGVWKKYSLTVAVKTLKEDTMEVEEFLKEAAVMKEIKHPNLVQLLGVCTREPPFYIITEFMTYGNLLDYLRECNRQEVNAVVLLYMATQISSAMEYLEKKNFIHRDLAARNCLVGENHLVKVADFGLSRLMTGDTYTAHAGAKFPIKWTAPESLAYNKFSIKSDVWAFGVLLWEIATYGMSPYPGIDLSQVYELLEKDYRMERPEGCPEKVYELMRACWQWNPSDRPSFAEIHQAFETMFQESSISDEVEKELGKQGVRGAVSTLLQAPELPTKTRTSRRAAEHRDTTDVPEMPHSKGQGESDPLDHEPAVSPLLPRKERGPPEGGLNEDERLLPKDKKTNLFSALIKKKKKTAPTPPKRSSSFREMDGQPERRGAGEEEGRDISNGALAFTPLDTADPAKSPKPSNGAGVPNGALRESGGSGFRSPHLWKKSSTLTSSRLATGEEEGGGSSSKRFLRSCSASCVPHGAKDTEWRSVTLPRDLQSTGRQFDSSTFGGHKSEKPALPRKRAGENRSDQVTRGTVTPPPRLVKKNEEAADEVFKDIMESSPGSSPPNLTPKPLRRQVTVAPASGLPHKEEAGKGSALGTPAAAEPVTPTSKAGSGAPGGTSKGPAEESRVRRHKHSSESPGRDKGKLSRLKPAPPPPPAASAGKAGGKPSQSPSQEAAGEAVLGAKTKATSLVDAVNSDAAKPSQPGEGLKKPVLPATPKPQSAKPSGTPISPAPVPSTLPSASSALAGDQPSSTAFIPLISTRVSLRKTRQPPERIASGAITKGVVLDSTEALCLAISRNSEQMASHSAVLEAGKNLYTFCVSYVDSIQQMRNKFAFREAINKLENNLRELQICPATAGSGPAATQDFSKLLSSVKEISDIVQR
T1 sequence (P48729 whole entry): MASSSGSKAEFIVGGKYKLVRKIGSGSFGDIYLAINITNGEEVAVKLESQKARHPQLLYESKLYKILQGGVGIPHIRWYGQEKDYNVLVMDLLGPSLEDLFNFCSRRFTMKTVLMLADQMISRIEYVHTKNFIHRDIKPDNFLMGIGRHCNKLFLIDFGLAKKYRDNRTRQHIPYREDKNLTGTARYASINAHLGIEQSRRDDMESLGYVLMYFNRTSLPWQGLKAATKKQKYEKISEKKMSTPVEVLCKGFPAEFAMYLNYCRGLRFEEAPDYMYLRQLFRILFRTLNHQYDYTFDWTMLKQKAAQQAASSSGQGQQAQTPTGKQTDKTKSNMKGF

As usually defined, the inhibition is the drop in the measured response relative to a control, in per cent. Low values mean a weak effect, high ones a strong effect. Turning to `C[C@@H]1Cc2nn(C)c(-c3ccccc3)c2-c2nc(Nc3ccn(CCN4CCN(C)CC4)n3)ncc21` [Compound I-1], the inhibition at 1 µM turned out to be 16% in assay [1]; 1% in assay [2]; 27% in assay [3]; 14% in assay [5]; 16% in assay [6]; 24% in assay [7]. For the same molecule, in assay [4], the “# kinases inhibited >50% @ 1 μM” value was 6/30.
For `COCCN1CCN(CCn2ccc(Nc3ncc4c(n3)-c3c(nn(C)c3-c3ccccc3)C[C@H]4C)n2)CC1` [Compound I-11], the inhibition at 1 µM in assay [1] came out at 17%; in assay [2], 9%; in assay [3] it was 22%; in assay [5] it was 8%; in assay [6], 16%; in assay [7], 10%. In assay [4], the “# kinases inhibited >50% @ 1 μM” value was 4/30.
Turning to `C[C@@H]1Cc2nn(C)c(-c3ccccc3)c2-c2nc(Nc3ccn(CCN4CCOCC4)n3)ncc21` [Compound I-2], the inhibition at 1 µM in assay [1] is 49%; in assay [2], 6%; in assay [3] it was 57%; in assay [5] it was 10%; in assay [6] it was 3%; in assay [7] it was 17%. For the same molecule, the “# kinases inhibited >50% @ 1 μM” value in assay [4] is 7/30.
Take `C[C@@H]1Cc2nn(C)c(-c3ccccc3)c2-c2nc(Nc3ccn(CCN4CCN(CC(C)(C)O)CC4)n3)ncc21` [Compound I-3]: the inhibition at 1 µM was found to be 37% in assay [1]; 7% in assay [2]; 45% in assay [3]; 9% in assay [5]; 12% in assay [6]; 27% in assay [7]. Also, the “# kinases inhibited >50% @ 1 μM” value in assay [4] is reported as 6/30.
With `C[C@@H]1Cc2nn(C)c(-c3ccccc3)c2-c2nc(Nc3ccn(CCN4CCN(CC5CCCO5)CC4)n3)ncc21` (stereo partly shown) [Compound I-9], the inhibition at 1 µM in assay [1] worked out at 37%; in assay [2], 3%; in assay [3] it was 37%; in assay [5], 9%; in assay [6], 10%; in assay [7] it was 17%. For the same molecule, the “# kinases inhibited >50% @ 1 μM” value in assay [4] is given as 6/30.
Take `CC(O)CN1CCN(CCn2ccc(Nc3ncc4c(n3)-c3c(nn(C)c3-c3ccccc3)C[C@H]4C)n2)CC1` (stereo partly shown) [Compound I-7]: the inhibition at 1 µM in assay [1] was determined as 29%; in assay [2], 9%; in assay [3], 42%; in assay [5], 10%; in assay [6], 23%; in assay [7], 22%. Moreover, the “# kinases inhibited >50% @ 1 μM” value in assay [4] is 6/30.
For `C[C@@H]1Cc2nn(C)c(-c3ccccc3)c2-c2nc(Nc3ccn(CCN4CCN(CC(=O)OC5CCOCC5)CC4)n3)ncc21` [Compound I-8], the inhibition at 1 µM in assay [1] is 38%; in assay [2], 7%; in assay [3], 38%; in assay [5] it was 14%; in assay [6], 13%; in assay [7], 10%. In addition, the “# kinases inhibited >50% @ 1 μM” value in assay [4] is reported as 3/30.
